Results: publication PMC9065575, “Synthesis, computational studies, antimycobacterial and antibacterial properties of pyrazinoic acid–isoniazid hybrid conjugates” (RSC Advances, 2019)
Where “and” joins values, the source holds several entries; their conditions need not be identical. Equal values may be shown once. Read-outs that look alike come from different tables or passages of the source.

How the values were obtained:
[1] = system: M. tuberculosis Erdman strain expressing luciferase; assay: microbe, parasite or virus in culture; type: cell-based, Mycobacterium tuberculosis; conditions: Mycobacterium tuberculosis, ERDMAN, 168 h; 30 μg mL^−1, pH 7.0, 7 days, vs untreated controls; read-out: Observed % growth inhibition at 30 µg/mL
[2] = system: RPE1 (normal human immortalized retinal epithelial) cell line; assay: Antiproliferative properties by MTT technique; type: cell-based; conditions: RPE1 cells, 100 μM
Method: Antiproliferative properties of the synthesized compounds were screened against RPE1 (normal human immortalized retinal epithelial) cell line to determine the toxicity/selectivity towards normal cell by the standard MTT technique.[23]
Antiproliferative properties of the synthesized compounds were tested against RPE1 (normal human immortalized retinal epithelial) cell line at 100 μM to determine the toxicity/selectivity towards normal cell by the standard MTT technique.[23]

Mycobacterium bovis = assay: microbe, parasite or virus in culture; type: cell-based; conditions: Mycobacterium tuberculosis variant bovis, read-out: Minimum inhibitory concentration (MIC) M. bovis
Mycobacterium fortuitum = assay: microbe, parasite or virus in culture; type: cell-based; conditions: for MIC: Mycolicibacterium fortuitum
Mycobacterium marinum = assay: microbe, parasite or virus in culture; type: cell-based; conditions: clinical isolate, read-out: Minimum inhibitory concentration (MIC) M. marinum
[3] = M. fortuitum, observed values listed with the BMLR-QSAR model, read-out: Observed MIC (Table S6)
[4] = clinical isolate, observed MIC, read-out: Minimum inhibitory concentration (MIC) M. fortuitum
[5] = clinical isolate, read-out: Minimum inhibitory concentration (MIC) M. fortuitum

| Structure (SMILES) | inhibition at 30 µg/mL [1] [%] | Percentage of cell proliferation ± SD [2] [%] | MIC (Mycobacterium bovis) | MIC (Mycobacterium fortuitum; [3]) [µM] | MIC (Mycobacterium fortuitum; [4]) [µM] | MIC (Mycobacterium fortuitum; [5]) [µg/mL] | MIC (Mycobacterium marinum; observed MIC) [µM] | MIC (Mycobacterium marinum) [µg/mL] | melting point [°C] | potency relative to INH (M. fortuitum MIC) (Mycobacterium fortuitum; vs INH MIC 145.8 μM) | potency relative to PZA (M. fortuitum MIC) (Mycobacterium fortuitum; vs PZA MIC 81.2 μM) [folds] |
| --- | --- | --- | --- | --- | --- | --- | --- | --- | --- | --- | --- |
| O=C(NNC(=O)[C@H](Cc1c[nH]c2ccccc12)NC(=O)c1cnccn1)c1ccncc1 [12g, (S)-N-(3-(1H-Indol-3-yl)-1-(2-isonicotinoylhydrazineyl)-1-oxopropan-2-yl)pyrazine-2-carboxamide] | 96 | 92.2 ± 1.2 | > 20 µg/mL and > 46.6 µM | 46600 | 46.6 | 20 | 46.6 | 20 | 243 to 245 |  |  |
| O=C(NNC(=O)[C@H](Cc1ccccc1)NC(=O)c1cnccn1)c1ccncc1 [12e, (S)-N-(1-(2-Isonicotinoylhydrazineyl)-1-oxo-3-phenylpropan-2-yl)pyrazine-2-carboxamide] | 94.8 | 83.2 ± 5.7 | > 20 µg/mL and > 51.2 µM | 51200 | 51.2 | 20 | 51.2 | 20 | 177 to 179 |  |  |
| CC[C@H](C)[C@H](NC(=O)c1cnccn1)C(=O)NNC(=O)c1ccncc1 [12c, N-((2S,3S)-1-(2-Isonicotinoylhydrazineyl)-3-methyl-1-oxopentan-2-yl)pyrazine-2-carboxamide] | 84.1 | 84.6 ± 3.7 | > 20 µg/mL and > 56.1 µM | 56100 | 56.1 | 20 | 56.1 | 20 | 168 to 170 |  |  |
| O=C(N[C@@H](Cc1c[nH]c2ccccc12)C(=O)O)c1cnccn1 [10g, (Pyrazine-2-carbonyl)-L-tryptophan] | 8.8 | 80.1 ± 7.4 | > 20 µg/mL and > 64.5 µM |  | > 64.5 | > 20 | > 64.5 | > 20 | 127 to 129 |  |  |
| CC(C)C[C@H](NC(=O)c1cnccn1)C(=O)NNC(=O)c1ccncc1 [12a, (S)-N-(1-(2-Isonicotinoylhydrazineyl)-4-methyl-1-oxopentan-2-yl)pyrazine-2-carboxamide] | 68.9 | 80.1 ± 4.2 | > 20 µg/mL and > 56.1 µM | 56100 | 56.1 | 20 | 56.1 | 20 | 160 to 162 |  |  |
| CC(C)C[C@H](NC(=O)c1cnccn1)C(=O)O [10a, (Pyrazine-2-carbonyl)-L-leucine] | 88.8 | 84.6 ± 0.7 | > 20 µg/mL and > 84.3 µM | 84300 | 84.3 | 20 | 84.3 | 20 | 155 to 156 |  |  |
| O=C(NNC(=O)C(Cc1ccccc1)NC(=O)c1cnccn1)c1ccncc1 (stereo not drawn) [12f, N-(1-(2-Isonicotinoylhydrazineyl)-1-oxo-3-phenylpropan-2-yl)pyrazine-2-carboxamide] |  | 95.5 ± 8.6 | > 20 µg/mL and > 51.2 µM |  | 25.6 | 10 | 25.6 | 10 | 143 to 145 | about 5.6 folds | ~3.2 |
| CSCC[C@H](NC(=O)c1cnccn1)C(=O)O [10d, (Pyrazine-2-carbonyl)-L-methionine] | 80.2 | 82.9 ± 8.5 | > 20 µg/mL and > 78.3 µM |  | > 78.3 | > 20 | > 78.3 | > 20 | 136 to 138 |  |  |
| CC[C@@H](C)[C@H](NC(=O)c1cnccn1)C(=O)O [10c, (Pyrazine-2-carbonyl)-L-alloisoleucine] | 84.3 | 81.8 ± 5.5 | > 20 µg/mL and > 84.3 µM |  | > 84.3 | > 20 | > 84.3 | > 20 | 164 to 166 |  |  |
